Data taken from EP0311632B1, “SURFACE ACTIVE LACTAMS” (priority 1986, dated 1988).
Read-outs that look alike come from different tables or passages of the source. Marks after values point to notes of the source that are not given here.

What was measured:
[1] = Cloud point of 10% aqueous solutions; type: physicochemical; conditions: 10% aqueous solution
Description: The higher the cloud point, the more soluble, i.e. hydrated, the surfactant.

[2] = Solubility of N-alkyl pyrrolidones, 10% by weight in various liquids; type: physicochemical; design: key to 10% PRODUCT SOLUBILITY: I: insoluble; PS: partially soluble (cloudy translucent); S: soluble, clear; *: Soluble with slight haze; **: Very slight precipitation; conditions: for 10% PRODUCT SOLUBILITY: 25°C ± 1°C; for solubility in water: room temperature, 10% concentration, in words
Protocol: Separate 10% by weight solutions of N-alkyl-2-pyrrolidone in the following liquids were made up in 50 ml glass beakers and the solubilities at about 25°C. were noted and reported in following Table 9.

[3] = Viscosity (Brookfield Viscometer, LVT Model); type: physicochemical
Protocol: The viscosities in cps of the following surfactants at various concentration in distilled water were measured at about 25°C. using a Brookfield Viscometer (LVT Model).
The above viscosity of alkyl pyrrolidones and their aqueous solutions were obtained usinq a #2 spindle at a speed of 30 rpm, and a #2 spindle at a speed of 60 rpm respectively.

[4] = Surface activity parameters calculated from surface tension measurements (Gibbs adsorption equation); type: physicochemical; conditions: for am: area of the molecule at the interface; for CMC: critical micelle concentration, calculated from surface tension data; for pC-20: negative logarithm of surfactant concentration required to lower surface tension by 20 dynes/cm
Protocol: The critical micelle concentration (CMC), the surface concentration at the liquid-air interface ( ? ), the area of the test molecule at the interface (am) and the effectiveness of adsorption at the interface (pC-20) were determined on the above surface tension data reported in Example XXI, Table 1.
More specifically, the CMC of the N-(n alkyl) pyrrolidones tested show a minimum (4.7 x 10⁻⁵) at the C₁₂ chain length. Using the empirical equation for n-lauryl (C₁₂) alcohol ethoxylate, log CCMC (= A)^1 (+ B)^1 n [formula] where A¹ = 4.4, B¹ = 0.046, and n = number of ethylene oxide at 23°C., the pyrrolidone ring would be expected to behave as 2 ethylene oxide units. […] The hydrophilic-lipophilic balance (HLB) of N-n-dodecyl pyrrolidone, based on the assumption that the pyrrolidone ring simulates 2-6 ethylene oxide units is 6.5 - 11 using the equation % ethylene oxide/5 - HLB.
The surface concentration ? , in moles per cm indicates the maximum surface concentration of surfactant, i.e. at equilibrium above the CMC, and is obtained by an estimation of a constant d γ /dc* from the surface tension vs. concentration. […] The mono disperse nature of the hydrophobe and hydrophile is believed to contribute to high surface concentrations by maximizing enthropy of packing. * d γ/dc = the change in surface tension with respect to the change in surfactant concentration.

[5] = Surface tension of aqueous solutions (Fisher Surface Tensiomat, ring tensiometer); type: physicochemical; conditions: 25°C.
Protocol: Surface tension measurements in triplicate were made for each of the N-alkylpyrrolidone species listed below in Table 1, using a Fisher Surface Tensiomat (Model #21, Der Nouy Ring Tensionometer). Each experiment was carried out as follows.
Distilled water solutions at concentrations noted in Table 1 were prepared for each of the following surfactants in 100 ml glass flasks. The solutions were stirred for about 15 minutes until homogeneous solutions were obtained. The surface tensions of these solutions were then measured.

[6] = pH of product, 10% in 50/50 isopropyl alcohol-water; type: physicochemical
Description: Into a stainless steel autoclave was introduced n-octylamine (2342 g) and butyrolactone (1704 g) in a mole ratio of about 1:1.1.

[7] = Titration of 10% dispersions with HCl to a clear solution (protonation); type: physicochemical; conditions: clear solution after HCl titration
Description: Ten percent dispersions of the C₈ and C₁₀ pyrrolidones were titrated to a clear solution using HCl.
To obtain a rough figure for the protonation equilibrium constant, the equilibrium [octyl pyrrolidone] was taken at 5 x 10⁻³m.

[8] = Density, heat of vaporization and solubility parameter; type: physicochemical
[9] = value starred: literature value; cited from earlier work
[10] = 100%, about 25°C., #2 spindle 30 rpm
[11] = product as such, stated in description and preparation examples
[12] = 0.001% solution in distilled water
[13] = 0.01% solution in distilled water
[14] = 0.1% solution in distilled water
[15] = 2% in distilled water, about 25°C., #2 spindle 60 rpm
[16] = 4% in distilled water, about 25°C., #2 spindle 60 rpm
[17] = 6% in distilled water, about 25°C., #2 spindle 60 rpm
[18] = 8% in distilled water, about 25°C., #2 spindle 60 rpm
[19] = 10% in distilled water, about 25°C., #2 spindle 60 rpm
[20] = 0.0001% solution in distilled water

Compound	Cloud Point [1]	10% PRODUCT SOLUBILITY ([2]; Acetone)	10% PRODUCT SOLUBILITY ([2]; Ethanol)	10% PRODUCT SOLUBILITY ([2]; Heptane)	10% PRODUCT SOLUBILITY ([2]; Paraffin Oil)	10% PRODUCT SOLUBILITY ([2]; Perchloroethylene)	10% PRODUCT SOLUBILITY ([2]; Stoddard Solvent)	10% PRODUCT SOLUBILITY ([2]; Water)	10% PRODUCT SOLUBILITY ([2]; Xylene)	solubility in water [2]	VISCOSITY [3, 10]	VISCOSITY [3, 11]	am [4]	CMC [4]	pC-20 [4]	Surface Tension of Aqueous Solutions [5, 12]	Surface Tension of Aqueous Solutions [5, 13]	Surface Tension of Aqueous Solutions [5, 14]	pH [6]	further results
O=C1CCCN1C1CCCCC1 [N-cyclohexyl pyrrolidone, reference compound]	55 °C																			
CCCCCCCCCCN1CCCC1=O [N-decyl-2-pyrrolidone]	19 °C	S	S	S	S	S	S	PS*	S	slightly soluble	12.0 CPS	12 cps	36.1 (Å)^2	440 µM	4.51	51.0 dynes/cm	27.8 dynes/cm	27.5 dynes/cm	5.4	Surface Tension of Aqueous Solutions ([5]; 1.0% solution in distilled water): 27.6 dynes/cm; Solution pH [7]: <0.1
CCCCCCCCCCCCN1CCCC1=O [N-dodecyl-2-pyrrolidone]	15-19 °C	S	S	S	PS	S	PS	S*	S	completely soluble	17.0 CPS	17 cps	36.9 (Å)^2	47 µM	5.27	29.9 dynes/cm	27.6 dynes/cm	26.7 dynes/cm	7.3	VISCOSITY [3, 15]: 6.5 CPS; VISCOSITY [3, 16]: 7.5 CPS; VISCOSITY [3, 17]: 12.5 CPS; VISCOSITY [3, 18]: 16.0 CPS; VISCOSITY [3, 19]: 20.0 CPS; Cloud Point ([1]; listed as dodecyl): 15-19 °C; Cloud Point ([1]; listed as dodecyl pyrrolidone): 31-32 °C; Surface Tension of Aqueous Solutions [5, 20]: 55.4 dynes/cm
CCCCCCCCN1CCCC1=O [N-octyl-2-pyrrolidone]	< 0 °C	S	S	S	S	S	S**	I	S	insoluble	8.0 CPS	8 cps	39.5 (Å)^2		3.20	68.4 dynes/cm	54.25 dynes/cm	30.4 dynes/cm	6.5	Solution pH [7]: 0.22
CCCCCCCCCCCCCCN1CCCC1=O [N-tetradecyl-2-pyrrolidone]	33 °C	S	S	S	S	S	S	S*	S	completely soluble	20.0 CPS	2 cps	53.6 (Å)^2	57 µM	6.25	30.4 dynes/cm	26.5 dynes/cm	26.4 dynes/cm	5.9	Heat of Vaporizn. [8]: 19.7 k cal/mole; Solubility Parameter (δ) [8]: 7.8; VISCOSITY [3, 15]: 24.5 CPS; VISCOSITY [3, 16]: 66.0 CPS; VISCOSITY [3, 17]: 96.0 CPS; VISCOSITY [3, 18]: 100.0 CPS; VISCOSITY [3, 19]: 145.0 CPS; Cloud Point ([1]; listed as tetradecyl): 33 °C; Cloud Point ([1]; listed as tetradecyl pyrrolidone): 33-34 °C; Γm ([4]; surface concentration at the liquid-air interface): 3.1 10^-10 mol/cm²; Surface Tension of Aqueous Solutions [5, 20]: 47.5 dynes/cm
CCCCCCCCCCCCCCCCN1CCCC1=O [hexadecyl, N-hexadecyl-2-pyrrolidone]	insoluble																			
CCCCCCCCCCCC[N+](C)(C)[O-] [lauryl dimethyl amine oxide, reference compound]													59.3 (Å)^2		5.23					CMC [9]: 2.1 x 10^-3* ml^-1
